Where two headings read alike, the source gives them in different places.
Columns and labels:
[1] = Single dose PK profile in Colon-26 tumor bearing mice; type: in vivo
Method: Female mice (either athymic BALC/c nude, or BALB/c mice) were inoculated with a single subcutaneous injection of 0.1 ml of mouse Colon-26 cell suspension (1×10^5 cells per animal) in the right flank region. Colon26 (C26) tumor bearing mice received a single dose (3-4 mice/treatment) of vehicle (10% DMSO/90% [20% SBE-R-CD in saline], pH 5) containing compounds at indicated dose by gavage (p.o.) or intravenous administration (i.v.) and at various time points (0.16, 0.5, 1, 2, 4, 8, 12, 16, 24-hour) post dose humanely euthanized. Blood was obtained through cardiac puncture into K+EDTA tubes, mixed by inversion and centrifuged to obtain the plasma. Tissues were excised, cleaned of surrounding tissues. All samples immediately snap frozen in liquid N2 prior to LC-MS/MS analysis (using Agilent Poroshell-120 EC-C18 (4.0 μm) 2.1×50 mm, and a Water+API-4000™ Electrospray MS unit).

[2] = tested on: A549 (KRAS^G12S) NSCLC xenograft; test: A549 NSCLC xenograft tumor model; type: in vivo, Athymic Nude Mice
Text: A549 (KRAS^G12S) NSCLC Xenograft Tumor Model in Athymic Nude Mice. Binimetinib and encorafenib were commercially purchased.

pMEK in A549 = test: CRAF A549 pMEK:tMEK; type: cell-based, Human
Method: Materials and Methods: A549 or A375 cells were seeded in 6-well plates at an appropriate seeding density on day 0. On day 2 or 3, after checking the health and confluency of cells, the media was aspirated and replaced with 1 mL media containing a predetermined concentration of compound and incubated for 2 hours. After 2 hours, the media was aspirated, and the cells washed 2 times with cold PBS. Cells were lysed on ice, with 50 μL 1× CST lysis buffer+1 mM PMSF for 5 minutes. After 5 minutes, cells were removed using a scraper and transferred to cold 1.5 mL tubes, and centrifuged for 10 min, 4° C., 14,000×g. Supernatant was gently removed and snap frozen in liquid nitrogen. Protein concentration of the lysate was determined using Bradford Reagent (analyzed using SpectraMax M2E) and diluted to 1 mg/mL or pERK or 1.5 mg/mL for pMEK analysis. Cell lysates were then analyzed for phosphor-ERK/total-ERK levels on a Jess system (ProteinSimple; Cat #JS3346) using the following antibodies: tERK1/2 (CST 4696; 1:50) and pERK1/2 (CST 4377; 1:50). For pMEK/tMEK, the following antibodies were used: tMEK1/2 (CST 4694; 1:15) and pMEK1/2 (CST 9154; 1:400). All dilutions were in Milk-free antibody diluent.

[3] = Tissue pharmacokinetics in Colon-26 tumor bearing mice, 2-hour post dose; type: in vivo; conditions: single dose 100 mg/kg p.o.
Method: Female mice (either athymic BALC/c nude, or BALB/c mice) were inoculated with a single subcutaneous injection of 0.2 ml of mouse Colon-26 cell suspension (1×10^5 cells per animal) in the inguinal region. Colon26 (C26) tumor bearing mice received a single dose (3 mice/treatment) of vehicle (10% DMSO/90% [20% SBE-R-CD in saline], pH 5) containing compounds at 100 mg/kg by gavage (p.o.) and 2-hour post dose humanely euthanized.
Blood was obtained through cardiac puncture into K+EDTA tubes, mixed by inversion and centrifuged to obtain the plasma. Tissues were excised, cleaned of surrounding tissues. All samples immediately snap frozen in liquid N2 prior to LC-MS/MS analysis (using Waters HSS T3 2.1×50 mm (1.8 um) LC column, and an API-6500 Electrospray MS unit).

[4] = Metabolite ID study in hepatocytes; type: in vitro ADME; conditions: 10 μM compound 9, T=60 min
Method: Cryopreserved hepatocytes from a selected species were thawed and incubated in duplicate with 10 μM compound 9 in Krebs-Henseleit buffer. […] Viability of hepatocytes was >70% after thawing.
(Eppendorf 5804R). […] The disappearance of the parent compound was determined, and the formation of metabolites was evaluated. Metabolites present at >1% of total compound related material (based on peak area) were identified by interpretation of the LC-MS/MS data.
MS settings were optimized for the flow rate. Full scan spectra were acquired in combination with data dependent MS2.
The formation and identification of metabolites was evaluated according to the following approach:
The spectra obtained from all samples were screened for the presence of m/z values that are absent in the blank incubations (incubations with hepatocytes without compound and with vehicle control, and incubations of compound in buffer without hepatocytes). T=60 min incubations were used as an initial screening. All possible metabolites observed were semi-quantified by MS response (peak area). MS2 spectra were interpreted to determine possible location of the metabolism reaction. The presence of metabolites identified was compared across the selected species.

[5] = female, mouse, iv, 25 mg/kg, plasma, 25 mpk i.v., 2nd of two values in cell
[6] = female, mouse, po, 25 mg/kg, plasma, 25 mpk p.o., 2nd of two values in cell
[7] = female, mouse, po, 100 mg/kg, plasma, 100 mpk p.o., 2nd of two values in cell
[8] = female, mouse, po, 100 mg/kg, tumor, 100 mpk p.o., 2nd of two values in cell
[9] = tumor, 25 mpk i.v., 2nd of two values in cell
[10] = tumor, 100 mpk p.o., 1st of two values in cell

**Q.** Which AUC(0-inf) [1, 5] does the source give for `CNS(=O)(=O)Nc1cccc(Cc2c(CN(C)C)c3ccc(OC(=O)N(C)C)cc3oc2=O)c1F` [Compound A, 4-((dimethylamino)methyl)-3-(2-fluoro-3-((N-methylsulfamoyl)amino)benzyl)-2-oxo-2H-chromen-7-yl dimethylcarbamate] here?
**A.** Its AUC(0-inf) is 7740 ng·h/mL.

**Q.** What about the half-life [1, 5] of the same compound?
**A.** Its half-life is 2.39 h.

**Q.** And the AUC(0-t) ([1]; female, mouse, iv, 25 mg/kg, plasma, 25 mpk i.v., 2nd of two values in cell, read-out: AUC0-t)?
**A.** Its AUC(0-t) is 7730 ng·h/mL.

**Q.** What about the Cmax ([1]; female, mouse, iv, 25 mg/kg, plasma, 25 mpk i.v., 2nd of two values in cell, read-out: Cmax) of the same compound?
**A.** Its Cmax is 10900 ng/mL.

**Q.** And the Tmax ([1]; female, mouse, iv, 25 mg/kg, plasma, 25 mpk i.v., 2nd of two values in cell, read-out: Tmax)?
**A.** The Tmax was 0.16 h.

**Q.** What about the Cmax ([1]; female, mouse, iv, 25 mg/kg, tumor, 25 mpk i.v., 2nd of two values in cell, read-out: Cmax) of the same compound?
**A.** The Cmax was 6750 ng/mL.

**Q.** And the AUC(0-inf) [1, 6]?
**A.** The AUC(0-inf) was 3650 ng·h/mL.

**Q.** What about the bioavailability [1, 6] of the same compound?
**A.** Its bioavailability is 47%.

**Q.** And the half-life [1, 6]?
**A.** The half-life was 1.23 h.

**Q.** And the AUC(0-t) ([1]; female, mouse, po, 25 mg/kg, plasma, 25 mpk p.o., 2nd of two values in cell, read-out: AUC0-t)?
**A.** Its AUC(0-t) is 3640 ng·h/mL.

**Q.** What about the Cmax ([1]; female, mouse, po, 25 mg/kg, plasma, 25 mpk p.o., 2nd of two values in cell, read-out: Cmax) of the same compound?
**A.** Its Cmax is 2320 ng/mL.

**Q.** What about the bioavailability ([1]; female, mouse, po, 25 mg/kg, tumor, 25 mpk p.o., 2nd of two values in cell) of the same compound?
**A.** The bioavailability was 42%.

**Q.** What about the AUC(0-t) ([1]; female, mouse, po, 25 mg/kg, tumor, 25 mpk p.o., 2nd of two values in cell, read-out: AUC0-t) of the same compound?
**A.** Its AUC(0-t) is 3460 ng·h/mL.

**Q.** And the Cmax ([1]; female, mouse, po, 25 mg/kg, tumor, 25 mpk p.o., 2nd of two values in cell, read-out: Cmax)?
**A.** The Cmax was 1920 ng/mL.

**Q.** What about the Tmax ([1]; female, mouse, po, 25 mg/kg, tumor, 25 mpk p.o., 2nd of two values in cell, read-out: Tmax) of the same compound?
**A.** Its Tmax is 1 h.

**Q.** And the AUC(0-inf) [1, 7]?
**A.** The AUC(0-inf) was 31100 ng·h/mL.

**Q.** What about the bioavailability [1, 7] of the same compound?
**A.** Its bioavailability is 100%.

**Q.** And the half-life [1, 7]?
**A.** The half-life was 1.38 h.

**Q.** What about the AUC(0-t) ([1]; female, mouse, po, 100 mg/kg, plasma, 100 mpk p.o., 2nd of two values in cell, read-out: AUC0-t) of the same compound?
**A.** The AUC(0-t) was 31100 ng·h/mL.

**Q.** What about the Cmax ([1]; female, mouse, po, 100 mg/kg, plasma, 100 mpk p.o., 2nd of two values in cell, read-out: Cmax) of the same compound?
**A.** The Cmax was 14200 ng/mL.

**Q.** And the Tmax ([1]; female, mouse, po, 100 mg/kg, plasma, 100 mpk p.o., 2nd of two values in cell, read-out: Tmax)?
**A.** The Tmax was 0.16 h.

**Q.** And the AUC(0-inf) [1, 8]?
**A.** The AUC(0-inf) was 37100 ng·h/mL.

**Q.** What about the bioavailability [1, 8] of the same compound?
**A.** The bioavailability was 111%.

**Q.** What about the AUC(0-t) ([1]; female, mouse, po, 100 mg/kg, tumor, 100 mpk p.o., 2nd of two values in cell, read-out: AUC0-t) of the same compound?
**A.** Its AUC(0-t) is 36900 ng·h/mL.

**Q.** And the Cmax ([1]; female, mouse, po, 100 mg/kg, tumor, 100 mpk p.o., 2nd of two values in cell, read-out: Cmax)?
**A.** The Cmax was 12600 ng/mL.

**Q.** And the Tmax ([1]; female, mouse, po, 100 mg/kg, tumor, 100 mpk p.o., 2nd of two values in cell, read-out: Tmax)?
**A.** The Tmax was 1 h.

**Q.** And the Tmax ([1]; plasma, 25 mpk p.o., 2nd of two values in cell)?
**A.** Its Tmax is 0.50/0.50 hr.

**Q.** What about the Tmax ([1]; tumor, 25 mpk i.v., 1st of two values in cell) of the same compound?
**A.** The Tmax was 0.50/0.50 hr.

**Q.** What about the “AUC0-∞” value [1, 9] of the same compound?
**A.** The value was 8,363 ng · hr/mL.

**Q.** What about the AUC(0-t) [1, 9] of the same compound?
**A.** The AUC(0-t) was 8,315 ng · hr/mL.

**Q.** What about the Tmax [1, 9] of the same compound?
**A.** The Tmax was 0.50/0.50 hr.

**Q.** And the Tmax ([1]; tumor, 25 mpk p.o., 1st of two values in cell)?
**A.** Its Tmax is 0.50 h.

**Q.** And the Cmax [1, 10]?
**A.** Its Cmax is 30,333 ng/mL.

**Q.** What about the Tmax [1, 10] of the same compound?
**A.** The Tmax was 0.50 h.

**Q.** And the “tumor growth inhibition compared to binimetinib monotherapy” value [2]?
**A.** Its value is “greater tumor growth inhibition”.

**Q.** What about the “CRAF A549 pMEK:tMEK [100 nM; 2 hr]” value (pMEK in A549) of the same compound?
**A.** Its value is 0.47.

**Q.** What about the Liver concentration [3] of the same compound?
**A.** The Liver concentration was 1260 ng/g.

**Q.** What about the Muscle concentration [3] of the same compound?
**A.** Its Muscle concentration is 363 ng/g.

**Q.** What about the Plasma concentration [3] of the same compound?
**A.** The Plasma concentration was 407 ng/mL.

**Q.** What about the Tumor concentration [3] of the same compound?
**A.** Its Tumor concentration is 1350 ng/g.

**Q.** And the “% of total compound related material based on peak area” value ([4]; Dog hepatocytes)?
**A.** The value was 96%.

**Q.** What about the “% of total compound related material based on peak area” value ([4]; Human hepatocytes) of the same compound?
**A.** The value was 99%.

**Q.** And the “% of total compound related material based on peak area” value ([4]; Monkey hepatocytes)?
**A.** The value was 95%.

**Q.** What about the “% of total compound related material based on peak area” value ([4]; Mouse hepatocytes) of the same compound?
**A.** The value was 97%.

**Q.** And the “% of total compound related material based on peak area” value ([4]; Rabbit hepatocytes)?
**A.** The value was 93%.

**Q.** What about the “% of total compound related material based on peak area” value ([4]; Rat hepatocytes) of the same compound?
**A.** Its value is 95%.

— US20260256738A1, “METHODS OF TREATING CANCER WITH A RAS MUTATION” (Immuneering Corporation, priority 2023, published 2026)
